The values that follow come from patent US20110118236A1, “HETEROCYCLIC COMPOUND” (priority 2008, published 2011).

T1 sequence (P42261 19-906 isoform P42261-2 limits assumed): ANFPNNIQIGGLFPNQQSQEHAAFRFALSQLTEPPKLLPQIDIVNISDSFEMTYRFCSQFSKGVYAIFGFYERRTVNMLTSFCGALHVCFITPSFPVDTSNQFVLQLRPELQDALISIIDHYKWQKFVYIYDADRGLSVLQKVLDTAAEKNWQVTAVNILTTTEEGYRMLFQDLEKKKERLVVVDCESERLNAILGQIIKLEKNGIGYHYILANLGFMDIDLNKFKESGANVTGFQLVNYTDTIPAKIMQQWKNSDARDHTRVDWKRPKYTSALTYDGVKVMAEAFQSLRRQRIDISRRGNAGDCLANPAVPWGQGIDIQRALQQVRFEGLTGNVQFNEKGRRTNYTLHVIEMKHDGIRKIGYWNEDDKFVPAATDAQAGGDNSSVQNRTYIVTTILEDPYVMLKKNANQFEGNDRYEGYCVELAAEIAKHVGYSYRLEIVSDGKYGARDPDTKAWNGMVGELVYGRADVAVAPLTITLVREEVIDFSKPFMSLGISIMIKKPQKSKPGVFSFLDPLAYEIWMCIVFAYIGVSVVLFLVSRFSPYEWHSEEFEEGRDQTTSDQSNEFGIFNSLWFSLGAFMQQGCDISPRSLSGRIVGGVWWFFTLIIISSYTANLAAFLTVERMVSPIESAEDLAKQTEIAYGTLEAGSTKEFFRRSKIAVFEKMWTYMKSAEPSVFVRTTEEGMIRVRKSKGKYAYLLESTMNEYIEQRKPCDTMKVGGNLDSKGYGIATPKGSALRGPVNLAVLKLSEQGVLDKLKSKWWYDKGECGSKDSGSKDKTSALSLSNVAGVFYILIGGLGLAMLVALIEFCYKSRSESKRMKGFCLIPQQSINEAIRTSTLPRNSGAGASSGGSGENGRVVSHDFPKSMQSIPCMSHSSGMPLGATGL
T1 sequence (Q9Y698 whole entry partner): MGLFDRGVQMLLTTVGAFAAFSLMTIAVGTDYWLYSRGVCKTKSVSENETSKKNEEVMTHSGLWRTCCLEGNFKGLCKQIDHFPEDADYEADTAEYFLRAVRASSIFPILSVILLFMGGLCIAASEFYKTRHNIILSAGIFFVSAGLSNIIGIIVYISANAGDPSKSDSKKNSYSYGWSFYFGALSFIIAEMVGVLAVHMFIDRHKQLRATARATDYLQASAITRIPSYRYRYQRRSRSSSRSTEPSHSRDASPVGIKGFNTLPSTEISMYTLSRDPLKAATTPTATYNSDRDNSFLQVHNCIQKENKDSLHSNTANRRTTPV

This assay has as its target T1, AMPA receptor (human GluR1 flip/stargazin expressed in CHO-K1 cells) (Homo sapiens, UniProt P42261).
T1 construct: expressed in transfected cells; host or cells: CHO-K1
The assay is described as follows: Assay of AMPA receptor potentiation by compounds, using calcium influx as an indicator. The class given is cell-based. The settings on record: compound 30 μM with glutamic acid final concentration 3 mM, 100% = glutamic acid 3 mM + 300 μM cyclothiazide, 0% = glutamic acid only, change over 3 minutes. From the text:
(1) Construction of Expression Genes
Human GluR1 flip cDNA was amplified by PGR using the forward primer ACTGAATTCGCC […] (SEQ ID: 1), and the reverse primer CCGCGGC […] (SEQ ID: 2), which had been artificially synthesized using human brain-derived cDNA (BD Bioscience) as template. The amplified product was digested with the restriction enzymes EcoRI and NotI. (Takara Shuzo Co., Ltd.), and was then incorporated at the same site of peDNA3.1(+) (Invitrogen) to construct; the pcDNA3.1(+)/human GluR1 flip gene. Human stargazin cDNA was amplified by PCR using the forward primer GGTC TCGAGOCCACCATGGOGCTGTTTGATCGAGGTGTTCA (SEQ ID: δ 3), and the reverse primer […] (SEQ ID: 4), which had been artificially synthesized using human hippocampal cDNA as template. The amplified product was digested with the restriction enzymes XhoI and BamHI (Takara Shuzo Co., Ltd.), and was then incorporated at the same site of pcDNA3.1(−) (Invitrogen) to construct the pcDN.A3.1. Zeo(−)/human stargazin gene.
(2) Construction of Cells Expressing GluR1 Flip/Stargazin
CHO-K1 cells passaged in culture media (Ham's F12 media (Invitrogen) supplemented with […] inactivated fetal bovine serum (Morgate), penicillin, and streptomycin (Invitrogen)) were separated using 0.05% trypsin diluted with D-PBS(−), and 0.53 mM EDTA (Invitrogen). The separated cells were suspended in culture media and harvested by centrifugation at 1,000 rpm. The harvested cells were re-suspended in D-PBS(−) and introduced into a 0.4 cm electroporation cuvette (BioRad). The pcDNA3.1(+)/human GluR1 flip gene (5 μg) and pcDNA3.1 Zeo(−)/human stargazin gene (15 μg) were added, and were introduced into the CHO-K1 cells using a Gene Pulser II (BioRad) at 950 μFd and […]. The cells were incubated overnight in culture media, and on the next day 96-well plates were seeded with 250 cells/well using selection media (Zeocin (Invitrogen) in a concentration of 250 μg/mL in culture media). Drug resistant clones were selected, and clones expressing GluR1 flip/stargazin were selected by the following assay using calcium influx as an indicator.
(3) Assay of AMPA receptor potentiation by compounds, using calcium influx as an indicator 96-well black-bottomed clear plates (Costar) were seeded with the CHO-K1/GluR1 flip/stargazin expressing cells (2×10^4 cells/well), and were incubated for 2 days at 37° C. in a CO2 incubator (Sanyo). The cell plate media was removed, and assay buffer A (D-MEM (Invitrogen), 0.1% BSA (Serological Protein, Inc.), and 20 mM HEPES (invitrogen)) was added to a concentration of 50 μL/well. A calcium indicator (Calcium Kit B-Fluo4 for TKB, Dojindo Laboratories) containing 2.5 mM probenecid (Dojindo Laboratories) was added to a concentration of 50 μL/well, and the plates were allowed to stand for 1 hour at 37° C. in a CO2 incubator. The cell plates were set up on a CellLux (PerkinElmer), a 50 pt mixture of 9 mM glutamic acid diluted (final concentration 3 mM) with assay buffer B (HBSS (Invitrogen), 0.1% BSA, and 20 mM HEPES) and the compound to be tested (concentration of compound to be detected: 30 μM) was added, and the change in the level of fluorescence over a period of 3 minutes was determined. The compound activity was calculated using the following equation, wherein the change in fluorescence in wells containing glutamic acid (final concentration 3 mM) and 300 μM cyclothiazide (TOCRIS) was defined as 100%, and the change in fluorescence in wells containing only glutamic acid (final concentration 3 mm) was defined as 0%.
Activity (%)=(X−C)/(T−C)×1.00
T: change in fluorescence in wells containing glutamic acid (final concentration 3 mM) and 300 μM cyclothiazide C: change in fluorescence in wells containing only glutamic acid (final concentration 3 mM) X: change in fluorescence in wells containing compound to be detected
With `O=C(c1csc(Cn2nc(C(F)(F)F)c3c2CCCC3)n1)N1CCCC1` [Example 145, 1-{[4-(Pyrrolidin-1-ylcarbonyl)-1,3-thiazol-2-yl]methyl}-3-(trifluoromethyl)-4,5,6,7-tetrahydro-1-H-indazole], the “Activity (%) of AMPA receptor potentiation (change in fluorescence, calcium influx)” value was 85%.

In the case of `NC(=O)c1c(NC(=O)Cn2nc(C(F)(F)F)c3c2CNCC3)sc2c1CCCC2` [Example 185, 2-({[3-(Trifluoromethyl)-4,5,6,7-tetrahydro-1H-pyrazolo[3,4-c]pyridin-1-yl]acetyl}amino)-4,5,6,7-tetrahydro-1-benzothiophene-3-carboxamide], the “Activity (%) of AMPA receptor potentiation (change in fluorescence, calcium influx)” value turned out to be 88%.

With `NC(=O)c1c(NC(=O)Cn2nc(C(F)(F)F)c3c2CCNC3)sc2c1CCCC2` [Example 190, 2-({[3-(Trifluoromethyl)-4,5,6,7-tetrahydro-1H-pyrazolo[4,3-c]pyridin-1-yl]acetyl}amino)-4,5,6,7-tetrahydro-1-benzothiophene-3-carboxamide], the “Activity (%) of AMPA receptor potentiation (change in fluorescence, calcium influx)” value was 70%.

As for `COc1ccc(Cl)cc1NC(=O)Cn1nc(C(F)(F)F)c2c1CNCC2` [Example 196, N-(5-Chloro-2-methoxyphenyl)-2-[3-(trifluoromethyl)-4,5,6,7-tetrahydro-1H-pyrazolo[3,4-c]pyridin-1-yl]acetamide], the “Activity (%) of AMPA receptor potentiation (change in fluorescence, calcium influx)” value was 80%.

In the case of `COc1ccc(Cl)cc1NC(=O)Cn1nc(C(F)(F)F)c2c1CCN(C(C)=O)C2` [Example 226, 2-[5-Acetyl-3-(trifluoromethyl)-4,5,6,7-tetrahydro-1H-pyrazolo[4,3-c]pyridin-1-yl]-N-(5-chloro-2-methoxyphenyl)acetamide], the “Activity (%) of AMPA receptor potentiation (change in fluorescence, calcium influx)” value came out at 74%.

For `CNC(=O)N1CCc2c(c(C(F)(F)F)nn2CC(=O)Nc2cc(Cl)ccc2OC)C1` [Example 229, 1-{2-[(5-Chloro-2-methoxyphenyl)amino]-2-oxoethyl}-N-methyl-3-(trifluoromethyl)-1,4,6,7-tetrahydro-5H-pyrazolo[4,3-c]pyridine-5-carboxamide], the “Activity (%) of AMPA receptor potentiation (change in fluorescence, calcium influx)” value is 78%.

Turning to `FC(F)(F)c1nn(Cc2nnc(-c3cccs3)o2)c2c1CCCC2` [Example 272, 1-[(5-Thiophen-2-yl-1,3,4-oxadiazol-2-yl)methyl]-3-(trifluoromethyl)-4,5,6,7-tetrahydro-1H-indazole], the “Activity (%) of AMPA receptor potentiation (change in fluorescence, calcium influx)” value is reported as 86%.

Consider `Cc1cc(C)n2ncc(-c3noc(Cn4nc(C(F)(F)F)c5c4CCCC5)n3)c2n1` [Example 276, 5,7-Dimethyl-3-(5-{[3-(trifluoromethyl)-4,5,6,7-tetrahydro-1H-indazol-1-yl]methyl}-1,2,4-oxadiazol-3-yl)pyrazolo[1,5-a]pyrimidine], for which the “Activity (%) of AMPA receptor potentiation (change in fluorescence, calcium influx)” value was found to be 79%.

`FC(F)(F)c1nn(Cc2nc(-c3cnccn3)no2)c2c1CCCC2` [Example 277, 1-[(3-Pyrazin-2-yl-1,2,4-oxadiazol-5-yl)methyl]-3-(trifluoromethyl)-4,5,6,7-tetrahydro-1H-indazole]: the “Activity (%) of AMPA receptor potentiation (change in fluorescence, calcium influx)” value is given as 75%.

As to `Cc1cc(C(F)(F)F)n2ncc(-c3noc(Cn4nc(C(F)(F)F)c5c4CCC5)n3)c2n1` [Example 278], the “Activity (%) of AMPA receptor potentiation (change in fluorescence, calcium influx)” value was found to be 82%.

For `FC(F)(F)c1nn(Cc2nc(-c3cccs3)no2)c2c1COCC2` [Example 279, 1-[(3-Thiophen-2-yl-1,2,4-oxadiazol-5-yl)-methyl]-3-(trifluoromethyl)-1,4,6,7-tetrahydropyrano[4,3-c]pyrazole], the “Activity (%) of AMPA receptor potentiation (change in fluorescence, calcium influx)” value is listed as 62%.

`CSc1sc(C(=O)NCCn2nc(C(F)(F)F)c3c2CCCC3)c2nc(C)n(C)c12` [Example 280, 1,2-Dimethyl-6-(methylsulfanyl)-N-{2-[3-(trifluoromethyl)-4,5,6,7-tetrahydro-1H-indazol-1-yl]ethyl}-1H-thieno[3,4-d]imidazole-4-carboxamide]: the “Activity (%) of AMPA receptor potentiation (change in fluorescence, calcium influx)” value was found to be 86%.

As to `Cc1cc(C(F)(F)F)n2ncc(-c3noc(Cn4nc(C(F)(F)F)c5c4CCCC5)n3)c2n1` [Example 283, 5-Methyl-7-(trifluoromethyl)-3-(5-{[3-(trifluoromethyl)-4,5,6,7-tetrahydro-1H-indazol-1-yl]methyl}-1,2,4-oxadiazol-3-yl)pyrazolo[1,5-a]pyrimidine], the “Activity (%) of AMPA receptor potentiation (change in fluorescence, calcium influx)” value was 76%.

As to `CSc1sc(C(=O)NCCn2nc(C(F)(F)F)c3c2CCCC3)c2c1C(O)CCC2` (centres unmarked) [Example 287, 4-Hydroxy-3-(methylsulfanyl)-N-{2-[3-(trifluoromethyl)-4,5,6,7-tetrahydro-1H-indazol-1-yl]ethyl}-4,5,6,7-tetrahydro-2-benzothiophene-1-carboxamide], the “Activity (%) of AMPA receptor potentiation (change in fluorescence, calcium influx)” value was 68%.
